# Data published in patent publication US6667157B1, “Compositions and methods for the abrogation of cellular proliferation utilizing the human immunodeficiency virus VPR protein” (priority 1994, dated 2003).
# How the values were obtained:
# HIV LTR = experiment: LTR-CAT assay in RD cells transfected with pBennCAT; format: cell-based, HIV-1; conditions: for increase in CAT activity over the controls: agent added to medium of LTR-CAT transfected RD cells, harvested 48 hours later
# Protocol: Induction of the HIV-LTR was measured as a function of a reporter gene (CAT) function. pBennCAT, an LTR-CAT encoding construct, obtained from M. Martin, through the NIH ARRRP was used. The levels of CAT protein were measured using a CAT ELISA capture assay (Boehringer Mannheim), following manufacturer's specifications. The levels of CAT activity were measured by a chloramphenicol acetyltransferase assay, according to published procedures (Gorman, et al., 1982, The Rous sarcoma virus long terminal repeat is a strong promoter when introduced into a variety of eukaryotic cells by DNA mediated transfection. Proc. Natl. Acad. Sci. USA. 79, 6777-6781). Briefly, RD cells were transfected with pBennCAT (Gendelman, 1986, Trans-activation of the Human immunodeficiency virus long terminal repeat sequence by DNA viruses. Proc. Natl. Acad. Sci. USA. 83, 9759-9763), using DOTAP. Cells were washed 12 hours later and new medium, containing the test reagents was added to the cell monolayers. 48 hours later, cells were washed three times with Ca+2/Mg+2 free PBS. Cells were then scraped off the plate, and collected with 1 ml PBS. Cell pellets were lysed by resuspending them in 100 μl 0.25M Tris, pH 7.8, and undergoing three freeze-thaw cycles using an ethanol-dry ice bath, and a 37° C. water bath. Lysates were spun at 12,000 G for 5 minutes and samples were stored at −20° C. until they were used. The CAT reaction was set up using 5 μl C^14 chloramphenicol (40-50 mCi/mmole), 70 μl ddH2O, 35 μl 1M Tris, pH 7.8, 20 μl 4 mM acetyl Coa (Pharmacia), 20 μl cell lysate. The reactions were incubated at 37° C. for an hour, and subsequently extracted with 1 ml ethyl acetate. After resuspension in 20 μl ethyl acetate, samples were spotted on the silica gel TLC plates (Whatman), and developed in chloroform:methanol (95:5); ascending. Gels were dried and exposed to film (Kodak XAR) overnight at room temperature. The panel of HIV-1 LTR/CAT mutants were obtained from Dr. Joseph Stevens, through the NIH ARRRP. pGRE5/CAT was obtained from United States Biochemicals.
# The possibility that activation of the GR pathway could play a central role in the viral transcription process was considered. To test this, RD cells were transfected with an LTR-CAT encoding plasmid (pBennCAT) (Gendelman, 1986, supra), without selection. 12 hours later, the cell monolayers were washed and fresh medium containing the test reagents was added to the cultures, and 48 hours later the cells were harvested. In these studies, the co-transfection of a vpr encoding plasmid with the LTR-CAT encoding plasmid produced an increase in CAT activity of 5-10 fold over the controls, as has been previously reported. […] Vpr protein was detected in the tissue culture media of these cells, as assessed by capture ELISA.
# HIV-1 NL43 Δvpr = experiment: Complementation in trans of HIV-1 NL43 Δvpr in nonproductively infected U937 cells (virus production); format: cell-based; conditions: for complementation in trans of HIV-1 NL43 Δvpr virus: agent added to tissue culture medium of nonproductively infected U937 cells
# Protocol: (§1) The following cell lines were obtained from the American Type Culture Collection; TE671 human embryonal rhabdomyosarcoma (ATCC HTB139), A673 embryonal rhabdomyosarcoma (ATCC CRL 1598), D17 canine osteosarcoma (ATCC CCL183), HOS human osteosarcoma (ATCC CRL 1543), U373 human glioblastoma (ATCC HTB17), SK-N-MC neuroblastoma (ATCC HTB10). Two additional glioblastoma lines were kindly provided by the Medical Research Council (MRC), England, (HT17 and HT16). U87MG (HTB14) is a glial cell line obtained from the University of Pennsylvania Cell Center. RD rhabdomyosarcoma cells were provided by Dr. A. Srinivasan. The T lymphocytic cells H9 and SupT-I were obtained from the University of Pennsylvania Cell Center, and KG-1 was obtained from Dr. G. Trinchieri. The murine NIH 3T3 line was obtained from ATCC. BSC-1, CV-1 and COS cell lines were obtained Dr. B. Moss. Primary PBL as well as primary monocytes/macrophages were isolated as in Levy, et al. 1994b, supra. All non-hematopoietic cells were cultured in DMEM with 10% heat inactivated fetal calf serum, penicillin/streptomycin, I-glutamine, Hepes (25 mM) and sodium pyruvate. Hematopoietic cells were cultured in RPMl 1640 as above except using 10% autologous human serum. Virus were prepared as described in Levy, et al., 1994b, supra; Levy, et al., 1994a, supra, which are incorporated herein by reference.
# The rabbit anti-vpr peptide serum (aa 2-21, “808”) was obtained from Bryan Cullen through the NIH ARRRP. The human anti-gag p24 (V7.8) was obtained from Ronald Kennedy through the NIH ARRRP. The sheep anti-p24 was obtained from the FDA through the NIH ARRRP. […]
# Such nonproductively infected cells can be rescued for p24 production by addition of exogenous vpr protein (Levy, et al., 1994a, supra; Levy, et al., 1994b, supra). […] When the nonproductively infected U937 cells described above were exposed to vpr protein, rip-1 translocated 12 hours later, and virus was first detected in the media 36 hours after the initial exposure to vpr. […]
# rip-1 = rip-1 cytoplasmic to nuclear translocation (cellular fractionation, vpr-ligand blot); format: cell-based; conditions: for nuclear translocation of rip-1: exposure of cells to agent, steroids at 10^−6M
# Protocol: 3×10^6 cells were washed twice in PBS, and lysed in 200 μl of lysis buffer (150 mM NaCl, 50 mM Tris, pH 8.0, 0.5% Triton X-100, plus protease inhibitors: aprotinin, leupeptin, pepstatin A, each at 2 μg/ml; PMSF, 1 mM, and EDTA, 1 mM). Cell suspension was incubated on ice for 10 minutes with frequent vortexing, and centrifuged at 12000 g for 6 minutes. The soluble, as well as the insoluble fractions were run on 12% SDS-PAGE, and transferred to PVDF membranes (Millipore), as described. Membranes were blocked with 5% non fat dry milk, in TBS supplemented with 0.05% Tween-20. Blocked membranes were incubated with either purified vpr protein (approximately 50 ng/ml) or an irrelevant protein. These membranes were then incubated with 808 rabbit anti vpr antiserum Levy, et al. 1994b, supra, followed by I^125 protein G (NEN), and exposed to film for at least 12 hours at −80° C.
# HIV-1 NL43 = experiment: Virus production by HIV-1 NL43 infected U937 cells; format: cell-based
# Protocol: as §1, with “reference. […]” for “reference.”
Molecule,increase in CAT activity over the controls (HIV LTR),complementation in trans of HIV-1 NL43 Δvpr virus (HIV-1 NL43 Δvpr),nuclear translocation of rip-1 (rip-1),other results
C[C@@H]1C[C@H]2[C@@H]3CCC4=CC(=O)C=C[C@]4(C)[C@@]3(F)[C@@H](O)C[C@]2(C)[C@@]1(O)C(=O)CO [Dexamethasone],ca. 50 fold,,,
C[C@]12CCC(=O)C=C1CC[C@@H]1[C@@H]2[C@@H](O)C[C@@]2(C)[C@H]1CC[C@]2(O)C(=O)CO [Hydrocortisone],ca. 50 fold,complemented in trans,induced the nuclear translocation of rip-1,
CCCCCCCCCCCCCC(=O)O[C@@H]1[C@@H](C)[C@@]2(O)[C@@H](C=C(CO)C[C@]3(O)C(=O)C(C)=C[C@@H]23)[C@@H]2C(C)(C)[C@]12OC(C)=O [PMA],,,not,
CC#C[C@]1(O)CC[C@H]2[C@@H]3CCC4=CC(=O)CCC4=C3[C@@H](c3ccc(N(C)C)cc3)C[C@@]21C [mifepristone],,,,"levels of virus produced, lower than the untreated cultures (HIV-1 NL43; HIV-1 infected cells exposed to mifepristone, 10^−6M): about 70%; inhibition of the enhancement in virus production by addition of vpr protein (HIV-1 NL43; infected cells plus vpr protein, mifepristone 10^−6M): 80-90 % inhibition; effect on transcomplementation of HIV-1 NL43 Δvpr infected U937 cells by vpr protein (HIV-1 NL43 Δvpr; mifepristone treatment): abolished; effect on vpr induced translocation of rip-1 (rip-1; mifepristone 10^−6M): inhibited; effect on rip-1 nuclear translocation induced by Dexamethasone and Hydrocortisone (rip-1; mifepristone added to culture medium, 10^−6M): blocked; effect on increase in CAT activity stimulated by vpr protein or steroids (HIV LTR; cultures supplemented with mifepristone): inhibited; effect on increase in CAT activity in cells cotransfected with vpr encoding plasmid and LTR-CAT plasmid (HIV LTR; mifepristone): blocked"
cyclodextrin,,not affected,failed to induce the nuclear translocation of rip-1,
